≈ marks a conversion by molar mass, not a printed value. Like-named read-outs stand apart in the source and are kept apart here.
How the values were obtained:
[1] = Tolerance in the cell culture: cytotoxicity in HeLa cells (CC50); format: cell-based; details: human, repeated per virus line of the plaque reduction table, read-out: 50% zytotoxic concentration in HeLa cells (CC50)
Procedure: (§1) 1×10^4 HeLa cells (DSMZ, ACC 57) were seeded per microtestplate cavity in 0.2 ml culture medium RPMI 1640. The microtiter plates were incubated without the test substance according to standard (at 37° C., 5% CO2 and ca. 95% relative humidity) for 48 hours under physiological conditions to produce subconfluent monolayers. Afterwards, dilution stages of the test substances were added to the monolayers and incubated under physiological conditions during a period of 72 h. At the end of the time of incubation, the extinction of all cavities of the microtiterplates were measured at 660 nm by means of a microplate reader (Sunrise, TECAN) after glutaraldehyd fixation and methylen-blue dye and the CC50 was determined by the analysis program “Magellan”. As the pre-incubation of the HeLa cells already leads to the formation of a subconfluent cell lawn, the cytolysis during the subsequent incubation with the test substance is decisive for the analysis. GMK cells were seemed in microtiter plates and preincubated at 5% CO2, 37° C. and with a humidity of 95% in the incubator during 48 h for producing a cell lawn (Schmidtke M et al.: J Virol Meth, 2001, 95(1-2), 133-143). Then, the medium was removed and the substances were deposited in different concentrations (100 μl/well/concentration, dilution factor 2) in the culture medium. 100 μl of the medium was used for each of the control value determinations (six untreated cell controls). 72 h after the substance application and incubation, the cells were dyed with crystal-violet/methanol. After the extraction of the dye, the optical density (OD) of the individual cavities were measured in a plate photometer of the Dynatech company (550/630 nm) and compared with the mean value of the cell controls. The mean value of the controls was assumed to be 100 %. By means of the mean dose effect curves the 50% cytotoxic concentrations (CC50) were measured by applying the linear interpolation method.

HeLa cells = experiment: as above; format: cell-based; details: 72 h incubation
Procedure: as §1

GMK cells = experiment: Tolerance in the cell culture: cytotoxicity in GMK cells (CC50); format: cell-based; details: 72 h incubation
Procedure: as §1

[2] = test system: coxsackievirus B3 Nancy (CVB3 Nancy); experiment: Cytopathic effect (cpE)-inhibition test in HeLa cells, CVB3 Nancy; format: cell-based; details: 24 h after infection; for IC50: Enterovirus B, read-out: 50% inhibition concentration CVB3 Nancy
Procedure: (§2) Cytopathic effect (cpE)-inhibition test with the international reference strain coxsackievirus B3 Nancy (CVB3 Nancy), human rhinovirus 2 and 8 (HRV2 and […]) in HeLa cells
(§3) The replication of the viruses used in the test leads to the complete destruction of the host cells, a strong cytophatic effect (cpE). […] In the test, untreated and substance-treated compact cell lawns were infected with a virus dose that leads to a complete cpE in the untreated virus controls 24 h (CVB3 Nancy) or 72 h (HRV2 and HRV8) after the infection. At this point in time, the still adherent cells were fixed and dyed with a crystal-violet/formalin solution. The inhibition of the virus-induced cpE was quantified photometrically in a Dynatach plate reader after dye elution. The antiviral effect was calculated by comparing the optical densities of the substance-treated and untreated, virus-infected cells with the mean optical density of the cell controls that was assumed to be 100%. By means of the mean dose effect curves the 50% inhibition concentration was determined. Pleconaril was used as a control substance.

[3] = test system: human rhinovirus 2 (HRV2); experiment: Cytopathic effect (cpE)-inhibition test in HeLa cells, HRV2; format: cell-based; details: for IC50: Rhinovirus A, read-out: 50% inhibition concentration HRV2
Procedure: as §2, §3

[4] = test system: human rhinovirus 8 (HRV8); experiment: Cytopathic effect (cpE)-inhibition test in HeLa cells, HRV8; format: cell-based; details: for IC50: Rhinovirus A, read-out: 50% inhibition concentration HRV8
Procedure: as §2, §3

coxsackievirus B1 (CVB1) = experiment: Plaque reduction test (PRT) in HeLa cells, CVB1; format: cell-based
Procedure: (§4) Plaque reduction test (PRT) with the substance of example 1 and coxsackievirus B1, B2, B4, B5, B6 (CVB1, CVB2, CVB4, CVB5, CVB6)
(§5) For performing the test, 2-3-days-old compact HeLa cell lawns were infected in 12-well-tissue culture plates with 50-80 plaque-forming units (PFU) (Schmidtke M et al.: J Virol Meth, 2001, 95(1-2), 133-143). Two non-infected cavities of the plate were used as cell controls (CC). After a virus adsorption at 37° C. during one hour the virus-containing supernatant was soaked off. The infected cells were covered with a test medium containing 0.4% agar without (virus controls) or with substance in non-zytotoxic concentrations (dilution factor 2, double determination per concentration) and incubated at 37° C. during 48 h. After the fixation and dyeing of the plates with crystal-violet formalin, the agar was removed and rinsed in flowing water. The number of the virus-induced plaques was counted via a light box and afterwards the proportional substance-induced plaque reduction was calculated. Three identical test approaches were performed and the concentration that leads to a 50% plaque reduction (IC50) was measured by using the calculated mean dose-effect-curve.

coxsackievirus B2 (CVB2) = experiment: Plaque reduction test (PRT) in HeLa cells, CVB2; format: cell-based
Procedure: as §4, §5

coxsackievirus B4 (CVB4) = experiment: Plaque reduction test (PRT) in HeLa cells, CVB4; format: cell-based
Procedure: as §4, §5

coxsackievirus B5 (CVB5) = experiment: Plaque reduction test (PRT) in HeLa cells, CVB5; format: cell-based
Procedure: as §4, §5

coxsackievirus B6 (CVB6) = experiment: Plaque reduction test (PRT) in HeLa cells, CVB6; format: cell-based
Procedure: as §4, §5

mice = experiment: Acute toxicity in the mouse, single oral administration; format: in vivo; details: for Number of dead/surviving mice: 5 mice; for substance concentration up to which all animals survived: administered orally once, mice; for tolerability after administering orally once: mouse, in vivo, po; for influence on general state of health, rectal temperature, body weight: up to 3.000 mg/kg orally once, three days observation
Procedure: The acute toxicity of the substances of the examples 2 and 4 were determined in mice which were 4-5 weeks old (without strain designation). 1-2 drops TWIN-80 were added to a 1% aqueous carboxymethyl cellulose solution and this mixture was used to produce a substance suspension. 1500, 2000, 2500, 3000, 4000 or 5000 mg/kg of the substances of the examples 2 and 4 were administered orally to 5 mice, each amount once. On the following three days, the general state of health of the mice, the changes in their weight, their rectal temperatures and their survival rate were determined.

[5] = cpE inhibition, HeLa cells, 72 h after infection
[6] = HRV2, cpE inhibition, HeLa cells, 72 h after infection
[7] = HRV8, cpE inhibition, HeLa cells, 72 h after infection

## Nc1nc(-c2ccccc2)nc2[nH]nc(Nc3ccccc3)c12 [Example 1, 4-amino-3-phenylamino-6-phenylpyrazolo[3,4-d]pyrimidine]
[1]
  CC50 at 72 h: 39.6 mg/L (≈ 131 µM)
HeLa cells
  50% cytotoxic concentration in HeLa cells: 39.6 µg/mL
GMK cells
  50% cytotoxic concentration in GMK cells: >50 µg/mL
[2]
  IC50: 0.002 mg/L (≈ 0.00662 µM)
[3]; [5]
  50% inhibition concentration HRV2: ineffective
[4]; [5]
  50% inhibition concentration HRV8: ineffective
Coxsackievirus B1 (CVB1); CVB1
  Selection index (SI) = CC50:IC50: 3.1
Coxsackievirus B1 (CVB1); Enterovirus B, HeLa, plaque reduction, CVB1, 48 h, read-out: 50% inhibition concentration in HeLa cells (IC50)
  IC50: 12.7 mg/L (≈ 42 µM)
Coxsackievirus B2 (CVB2); CVB2
  Selection index (SI) = CC50:IC50: 132
Coxsackievirus B2 (CVB2); Enterovirus B, HeLa, plaque reduction, CVB2, 48 h, read-out: 50% inhibition concentration in HeLa cells (IC50)
  IC50: 0.3 mg/L (≈ 0.992 µM)
Coxsackievirus B4 (CVB4); CVB4
  Selection index (SI) = CC50:IC50: 5.6
Coxsackievirus B4 (CVB4); Enterovirus B, HeLa, plaque reduction, CVB4, 48 h, read-out: 50% inhibition concentration in HeLa cells (IC50)
  IC50: 7.1 mg/L (≈ 23.5 µM)
Coxsackievirus B5 (CVB5); CVB5
  Selection index (SI) = CC50:IC50: 14.1
Coxsackievirus B5 (CVB5); Enterovirus B, HeLa, plaque reduction, CVB5, 48 h, read-out: 50% inhibition concentration in HeLa cells (IC50)
  IC50: 2.8 mg/L (≈ 9.26 µM)
Coxsackievirus B6 (CVB6); CVB6
  Selection index (SI) = CC50:IC50: 15.3
Coxsackievirus B6 (CVB6); Enterovirus B, HeLa, plaque reduction, CVB6, 48 h, read-out: 50% inhibition concentration in HeLa cells (IC50)
  IC50: 2.6 mg/L (≈ 8.6 µM)

## Nc1nc(-c2ccccc2)nc2[nH]nc(Nc3cccc(F)c3)c12 [Example 2, 4-amino-3-(3-fluorophenyl)amino-6-phenylpyrazolo[3,4-d]pyrimidine]
HeLa cells
  50% cytotoxic concentration in HeLa cells: 45.7 µg/mL
GMK cells
  50% cytotoxic concentration in GMK cells: >50 µg/mL
[2]
  IC50: 0.001 mg/L (≈ 0.00312 µM)
[3]; [6]
  IC50: 4.1 mg/L (≈ 12.8 µM)
[4]; [7]
  IC50: 4.6 mg/L (≈ 14.4 µM)
mice; 1500 mg/kg orally once
  Number of dead/surviving mice: 0/5
mice; 2000 mg/kg orally once
  Number of dead/surviving mice: 0/5
mice; 2500 mg/kg orally once
  Number of dead/surviving mice: 0/5
mice; 3000 mg/kg orally once
  Number of dead/surviving mice: 0/5
mice; 4000 mg/kg orally once
  Number of dead/surviving mice: 3/5
mice; 5000 mg/kg orally once
  Number of dead/surviving mice: 5/5
mice
  substance concentration up to which all animals survived: 3.000 mg/kg
  tolerability after administering orally once: very tolerable
  influence on general state of health, rectal temperature, body weight: Neither the general state of health nor the rectal temperature nor the body weight was influenced

## Cc1cccc(Nc2n[nH]c3nc(-c4ccccc4)nc(N)c23)c1 [Example 3, 4-amino-3-(3-methylphenyl)amino-6-phenylpyrazolo[3,4-d]pyrimidine]
HeLa cells
  50% cytotoxic concentration in HeLa cells: 27.7 µg/mL
[2]
  IC50: 0.02 mg/L (≈ 0.0632 µM)
[3]; [6]
  IC50: 1.1 mg/L (≈ 3.48 µM)
[4]; [7]
  IC50: 1 mg/L (≈ 3.16 µM)
other
  melting point: 246 to 248 °C

## Cc1ccc(Nc2n[nH]c3nc(-c4ccccc4)nc(N)c23)cc1 [Example 4, 4-amino-3-(4-methylphenyl)amino-6-phenylpyrazolo[3,4-d]pyrimidine]
HeLa cells
  50% cytotoxic concentration in HeLa cells: >50 µg/mL
GMK cells
  50% cytotoxic concentration in GMK cells: >50 µg/mL
[2]
  IC50: 0.08 mg/L (≈ 0.253 µM)
[3]; [6]
  IC50: 1.8 mg/L (≈ 5.69 µM)
[4]; [7]
  IC50: 2.2 mg/L (≈ 6.95 µM)
mice; 1500 mg/kg orally once
  Number of dead/surviving mice: 0/5
mice; 2000 mg/kg orally once
  Number of dead/surviving mice: 0/5
mice; 2500 mg/kg orally once
  Number of dead/surviving mice: 0/5
mice; 3000 mg/kg orally once
  Number of dead/surviving mice: 0/5
mice; 4000 mg/kg orally once
  Number of dead/surviving mice: 4/5
mice; 5000 mg/kg orally once
  Number of dead/surviving mice: 5/5
mice
  substance concentration up to which all animals survived: 3.000 mg/kg
  tolerability after administering orally once: very tolerable
  influence on general state of health, rectal temperature, body weight: Neither the general state of health nor the rectal temperature nor the body weight was influenced

## Nc1nc(-c2ccccc2)nc2[nH]nc(Nc3ccc(Br)cc3)c12 [Example 5, 4-amino-3-(4-bromophenyl)amino-6-phenylpyrazolo[3,4-d]pyrimidine]
HeLa cells
  50% cytotoxic concentration in HeLa cells: 8.5 µg/mL
GMK cells
  50% cytotoxic concentration in GMK cells: 42.9 µg/mL
[2]
  IC50: 0.04 mg/L (≈ 0.105 µM)
[3]; [6]
  IC50: 0.7 mg/L (≈ 1.84 µM)
[4]; [7]
  IC50: 1 mg/L (≈ 2.62 µM)
other
  melting point: 272 to 274 °C

## Nc1nc(-c2ccccc2)nc2[nH]nc(Nc3ccc(F)cc3)c12 [Example 6, 4-amino-3-(4-fluorophenyl)amino-6-phenylpyrazolo[3,4-d]pyrimidine]
HeLa cells
  50% cytotoxic concentration in HeLa cells: 44.3 µg/mL
GMK cells
  50% cytotoxic concentration in GMK cells: >50 µg/mL
[2]
  IC50: 0.03 mg/L (≈ 0.0937 µM)
[3]; [6]
  IC50: 0.9 mg/L (≈ 2.81 µM)
[4]; [7]
  IC50: 2 mg/L (≈ 6.24 µM)
other
  melting point: 259 to 263 °C

## Cc1cc(CCCOc2c(C)cc(-c3noc(C(F)(F)F)n3)cc2C)on1 [Pleconaril, reference compound]
[2]
  50% inhibition concentration CVB3 Nancy: ineffective
[3]; HRV2, HeLa, 72 h
  IC50: 0.01 mg/L (≈ 0.0262 µM)
[4]; HRV8, HeLa, 72 h
  IC50: 1.3 mg/L (≈ 3.41 µM)
